A melting point compilation (Tetko et al.; mined from patent text by program, amines drawn as free bases though some values may be those of a salt)

| melting point | Structure (SMILES) |
| --- | --- |
| 92 to 94 °C | CC(C)OC(=O)Cc1ccc2c(c1)C(=O)c1sccc1CO2 |
| 85 to 87 °C | Cc1cc(C(=O)C(F)(F)F)ccc1NC(=O)OC(C)(C)C |
| 81.5 to 83 °C | COc1ccccc1OCCOS(N)(=O)=O |
| 174 to 177 °C | COc1cc2c(cc1OC)C1(CCN(CCc3ccc([N+](=O)[O-])cc3)CC1)N(Cc1ccc([N+](=O)[O-])cc1)CC2=O |
| 119 to 122 °C | O=[N+]([O-])c1ccccc1Sc1ccncc1 |
| 178 to 179 °C | O=C(/C=C/c1cccc(-c2cccc([N+](=O)[O-])c2)c1)Nc1ccc(CN2CCCCC2)cc1 |
| 83 to 85 °C | CCOC(=O)c1ccc(N2CCC(NC[C@H](O)COc3ccc(O)c(S(C)(=O)=O)c3)CC2)cc1 |
| 104 to 108 °C | Cc1cc(Cn2nc(C(F)(F)C(F)(F)F)nc2C(F)(F)F)ccc1NC(=O)c1cccc(Br)c1C(=O)N[C@@H](C)CS(C)(=O)=O |
| 155 to 157 °C | O=C1c2ccccc2S(=O)(=O)N1CBr |
| 157 to 158 °C | N#CC(C#N)=NC1=C(N2CCOCC2)CCC1 |
| 136 to 140 °C | C#CCN1C(=O)COc2ccc(N)cc21 |
| 135 to 136 °C | COc1ccc2[nH]cc(CCCNCC3COc4ccccc4O3)c2c1 (stereo unspecified) |
| 98 to 104 °C | O=c1c2c(Cl)cc(N3CCNCC3)cc2n(Cc2ccccc2)c(=O)n1Cc1cccc(I)c1 |
| 121 °C | CN(CCCCC(=O)OC[C@@H]1CC(c2ccc(-c3ccc(N4C[C@H](Cn5ccnn5)OC4=O)cc3F)cn2)=NO1)C(=O)OC(C)(C)C |
| 103 to 104 °C | Cc1nc(-c2cc(Cc3ccccc3)no2)sc1C(=O)NCc1ccccc1 |
| 114 to 117 °C | CCC(=O)c1cccc2cccc(O)c12 |
| 220 to 222 °C | C=CCOC(=O)c1c(C)nc2[nH]c3ccccc3c2c1N |
| 179 to 180 °C | CCOc1cc(OCC(=O)O)cc2c1C(=O)N(COC(=O)c1c(Cl)cccc1Cl)S2(=O)=O |
| 177 to 178 °C | CC(C)C(NC(=O)OCc1cccnc1)C(=O)NC(Cc1ccccc1)C(O)C(Cc1ccccc1)NC(=O)C(NC(=O)OCc1cccnc1)C(C)C (stereo unspecified) |
| 89 to 91 °C | Cc1cc(Oc2ccc(C(F)(F)F)cc2[N+](=O)[O-])n[nH]1 |
| 190 to 191 °C | CC/C(=C(\c1ccc(/C=C/C(=O)O)cc1)c1ccc(OC(=O)COC)cc1)c1ccccc1 |
| 83 °C | COc1cc(C=O)c(OC)cc1C |
| 134 to 136 °C | Cc1nc(N2CCN(CC3CCCCC3)C2=O)sc1C(=O)NCc1cccnc1 |

| melting point | Structure (SMILES) |
| --- | --- |
| 183 to 185 °C | CCC(CC)=NNc1cc2c(nn1)CCN(C(=O)C(C)(C)C)C2 |
| 163 °C | CNC(=O)Nc1occ(C(C)(C)C)c1C#N |
| 108 to 110 °C | Cc1cc(CCNc2ncnc3c(F)ccc(F)c23)ccc1Oc1cc(C(F)(F)F)ccn1 |
| 188 °C | O=C(NCC1CCN(CC2(C(=O)O)CCCC2)CC1)N1C(=O)C2(CCCC2)c2ccccc21 |
| 168 to 170 °C | CC1(C)Oc2c(N)c(Cl)cc(Cl)c2C1=O |
| > 260 °C | O=c1ccc(-c2c(-c3ccccc3)nn3ccccc23)nn1CC1(O)CCNCC1 |
| 212 to 214 °C | O=C(c1ccc(Oc2ccccc2)cc1)c1ccc(C(=O)c2ccc(Oc3ccccc3)cc2)cc1 |
| 204 °C | CS(=O)(=O)c1c(F)cc(C2=C(c3ccccc3)C(=O)OC2)cc1F |
| 130 to 132 °C | CC(=O)Nc1ccccc1Oc1cc2c(=O)ccoc2cc1NS(C)(=O)=O |
| 186 to 188 °C | CC(C)(C)C(NC(=O)Cc1ccc(Cl)cc1)NC(Cc1cccc2ncccc12)=NC#N (stereo unspecified) |
| 135 to 136 °C | COC(=O)C(=O)CC(=O)/C=C/c1ccc(Cl)cc1 |
| 102 to 103 °C | COc1ccc(C(=O)Cc2ccncc2)cc1OC1CCCC1 |
| 164 to 166 °C | CS(=O)(=O)Cc1ccc(C(=O)c2ccc(Cl)cc2)cc1 |
| 63 to 65 °C | O=C(Cl)N1CCC(Oc2ccc(F)c(Cl)c2)C1 (stereo unspecified) |
| 262 to 263 °C | Nc1nc2ccccc2c2c1nc(CO)n2Cc1cc(-c2ccc(F)cc2)no1 |
| 178 to 180 °C | N#Cc1cc(F)c(N=C=S)cc1O |
| 128 to 131 °C | COC(=O)C(=C(CBr)CBr)N1CC(N2C(=O)c3ccccc3C2=O)C1=O (stereo unspecified) |
| 79 to 80 °C | Cc1ccc(S(=O)(=O)N2CCC(Sc3ccc(Cl)c(Cl)c3)CC2)cc1 |
| > 268 °C | O=C1CCCN1c1cnc2cnc(-c3ccc(O)cc3)nc2c1 |
| 132 to 134 °C | CCOC(=O)Nc1ccc(C23CC4CC(CC(C4)C2)C3)cc1 |
| 110 °C | Cc1cc(Cl)c([N+](=O)[O-])cc1NCCO |
| 142 to 146 °C | CS(=O)(=O)n1c(=NC(F)(F)F)oc2ccccc21 |
| 80 to 81 °C | COCN1C(C)=C(C(=O)OC)C(c2ccccc2)C(C(=O)OCOC(=O)C(C)(C)C)=C1C (single isomer, unassigned; (+)) |

| melting point | Structure (SMILES) |
| --- | --- |
| 113 to 115 °C | COc1ccc([N+](=O)[O-])cc1NC(=O)CC(=O)C1(C)COC(C)(C)OC1 |
| 235 to 237 °C | CCOC(=O)c1c2n(c3c(F)c(N4CCC(NC(=O)C(F)(F)F)C4)c(F)cc3c1=O)C(C)S2 (stereo unspecified) |
| 110 to 112 °C | N#Cc1ccc(CCC(O)c2ccc(C#N)cc2)cc1 (stereo unspecified) |
| 177 to 178 °C | NNC(=O)Cc1c(F)cccc1F |
| 137 to 139 °C | Fc1ccc(CNC(=S)N2CCc3c([nH]c4ccccc34)C2c2ccc3c(c2)OCO3)cc1 (stereo unspecified) |
| 146 to 147 °C | Nc1cccc(COc2cccc3cccnc23)c1 |
| 322 to 326 °C | CCn1c(=O)c2cc(C(=O)O)cn2c2cc(Cl)ccc21 |
| 179 to 182 °C | O=C(Cc1ccccc1[N+](=O)[O-])CN1C(=O)c2ccccc2C1=O |
| 107 to 108 °C | N[C@H](C(=O)O)[C@H](S)c1ccccc1 |
| 78 to 86 °C | CNc1ccc(-c2cc[nH]n2)cc1 |
| 110 to 113 °C | N#CC1(Sc2ccccc2)Cc2cc3c(cc21)N(C(=O)Nc1cccnc1)CC3 (stereo unspecified) |
| 126 to 129 °C | CCN1CCN(Cc2nc3sc(C)c(C)c3c(=O)n2-c2ccccc2Cl)CC1 |
| 142 °C | CCC(C(=O)c1ccc(Cl)cc1)n1ncn(-c2ccc(N3CCN(c4ccc(OC)cc4)CC3)nc2)c1=O (stereo unspecified) |
| 190 to 193 °C | NS(=O)(=O)c1ccc(-c2cnn(C3=CC=CC(F)(F)C3F)c(=O)c2-c2ccc(F)cc2)cc1 (stereo unspecified) |
| 194 to 196 °C | COc1ccc(CCNc2nc(N)c3nc(-c4ccco4)oc3n2)cc1 |
| 142 to 144 °C | CCOC(=O)c1cc(OCC)c(C(=O)OCC)c(OCC)c1 |
| 160 to 161 °C | COc1ccc(C(Sc2ccc3ccccc3c2N)C(O)C(=O)O)cc1 (stereo unspecified) |
| 136 to 138 °C | CCCNC(=O)C1(CCCN2CCC(N3Cc4ccccc4C3=O)CC2)c2ccccc2-c2ccccc21 |
| 45 to 46 °C | CCOC(=O)COc1cccc(CN2C(=O)C3(COc4cc5c(cc43)CCO5)c3ccccc32)c1 (stereo unspecified) |
| 76 to 78 °C | O[C@@H](CCOc1cccc2ccccc12)c1ccccc1 |
| 166 to 167 °C | CNc1nc(C=CC(=O)OC)c(-c2ccncc2)s1 |
| 110 to 113 °C | COC(=O)C(Cl)=NNc1ccc(F)cc1 |

| Structure (SMILES) | melting point |
| --- | --- |
| CC1(C)C(C=C(F)C(=O)OCC(F)(F)F)C1C(=O)OC(C#N)c1ccc(F)c(Oc2ccccc2)c1 (stereo unspecified) | 85 °C |
| CNC1CCc2[nH]c3cccc(C)c3c2C1 (stereo unspecified) | 163 to 166 °C |
| COC(=O)C1(Cl)CCC(=O)O1 (stereo unspecified) | 50.5 to 51 °C |
